Measurements reported in US7078169B2 (priority 1999, dated 2006).

Tests used:
HES1 reporter gene = format: cell-based, S. cerevisiae; details: ABY140 (pdr5::KanMX yor1::KanMX) vs ABY11 wild-type
Description: To further test the viability of this indicator gene in a high-throughput screen, the regulation of the HES1 reporter was tested in two different strain backgrounds ABY11 (MATa leu2Δ1 ura3-52) is a wild-type strain.
The ABY140 [HES1] strain was used to screen approximately 16,800 chemicals from a combinatorial chemistry library. […] Twenty-four of these chemical were further tested in a secondary screen for the ability to induce four additional indicator (also referred to as reporter) genes whose expression are also coordinately regulated with genes encoding ergosterol biosynthetic enzymes.

HES1 reporter = details: 384-well array, various concentrations, 30° C., 24 hrs
Description: Cells were grown to mid-log phase at 30° C. in casamino acids medium (0 67% yeast nitrogen base, 2% glucose, 2% casamino acids). Cell density was adjusted prior to incubation in various concentrations of drug Arrays were incubated at 30° C. for 24 hrs prior to imaging.

yjl105w mutant strain = test: Lovastatin drug disk on yeast lawn, yjl105w mutant vs wild-type; format: cell-based, S. cerevisiae; details: 250 μg on sterile disk, 5×10^6 cells, overnight at 30° C.
Description: FIG. 4. Effects of lovastatin on wild-type and YJL105w knockout yeast strains. 10 μl of a 25 mg/ml solution of lovastatin (250 μg) in ethanol was applied to a sterile drug disk on a lawn of yeast (5×10^6 cells, ABY363). The plates were incubated overnight at 30° C.
To test whether YJL105w has a role in isoprenoid metabolism, a yjl105w mutant where the entire ORF was replaced with the kanamycin resistance gene was constructed. Approximately 5×10^6 cells of the yjl105w mutant strain and a wild-type control strain (ABY363, MATα his3Δ1 leu2Δ0 lys2Δ0 ura3Δ0) were plated onto separate non-selective agar plates. The sterol biosynthetic inhibitor lovastatin (250 μg) was applied to a sterile disk on each lawn and the cells were allowed to grow overnight at 30° C.

| Structure (SMILES) | sensitivity of HES1 reporter gene induction in ABY140 compared to ABY11 (HES1 reporter gene) | induction of the HES1 reporter (HES1 reporter) | resistance of yjl105w mutant strain to treatment relative to wild-type control (ABY363) (yjl105w mutant strain) |
| --- | --- | --- | --- |
| Clc1ccc(COC(Cn2ccnc2)c2ccc(Cl)cc2Cl)cc1 (stereo not shown) [Econazole] | more sensitive | specifically induced | – |
| Nc1[nH]c(=O)ncc1F [Flucytosine] | not | – | – |
| CC[C@H](C)C(=O)O[C@H]1C[C@@H](C)C=C2C=C[C@H](C)[C@H](CC[C@@H]3C[C@@H](O)CC(=O)O3)[C@H]21 [lovastatin] | – | – | significantly more resistant |
